The assay has as its target T1, MAGL (recombinant wild-type) (Homo sapiens, UniProt Q99685).
T1 sequence (Q99685 1-303): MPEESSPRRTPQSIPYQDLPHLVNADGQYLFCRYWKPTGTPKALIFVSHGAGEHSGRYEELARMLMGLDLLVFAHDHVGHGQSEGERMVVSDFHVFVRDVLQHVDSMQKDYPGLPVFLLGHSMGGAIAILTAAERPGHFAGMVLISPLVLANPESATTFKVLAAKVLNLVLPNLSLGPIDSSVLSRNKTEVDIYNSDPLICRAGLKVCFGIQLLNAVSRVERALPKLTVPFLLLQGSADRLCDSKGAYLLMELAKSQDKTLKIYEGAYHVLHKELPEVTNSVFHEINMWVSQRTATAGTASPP
As to the kind of experiment: 4-NPA assay: MAGL inhibitory activity by hydrolysis of 4-nitrophenylacetate, absorbance at 405 nm. The conditions noted are these: 4-NPA assay (values without footnote [b]). In kind it is biochemical. The procedure: Compounds were profiled for MAGL inhibitory activity by measuring the enzymatic activity of MAGL by following the hydrolysis of 4-nitrophenylacetate resulting in 4-nitrophenol, which absorbs at 405-412 nm (G. G. Muccioli, G. Labar, D. M. Lambert, Chem. Bio. Chem. 2008, 9, 2704-2710). This assay is hereinafter abbreviated “4-NPA assay”.
The assay was carried out in 384 well assay plates (black with clear bottom, non-binding surface treated, Corning Ref. 3655) in a total volume of 40 μL. Compound dilutions were made in 100% DMSO (VWR Chemicals 23500.297) in a polypropylene plate in 3-fold dilution steps to give a final concentration range in the assay from 25 μM to 1.7 nM. 1 μL compound dilutions (100% DMSO) were added to 19 μL MAGL (recombinant wild-type) in assay buffer (50 mM TRIS (GIBCO, 15567-027), 1 mM EDTA (Fluka, 03690-100 mL)). The plate was shaked for 1 min at 2000 rpm (Variomag Teleshake) and then incubated for 15 min at RT. To start the reaction, 20 μL 4-Nitrophenlyacetate (Sigma N-8130) in assay buffer with 6% EtOH was added. The final concentrations in the assay were 1 nM MAGL and 300 μM 4-Nitrophenylacetate. After shaking (1 min, 2000 rpm) and 5 min incubation at RT, the absorbance at 405 nm was measured for a first time (Molecular Devices, SpectraMax Paradigm). A second measurement was then done after incubation for 80 min at RT. From the two measurements, the slope was calculated by subtracting the first from the second measurement.

In the case of `Cc1ccc2oc(N3CCN(C(=O)c4cnc(N5CCC6(C5)CC6(F)F)c(Cl)c4)CC3)nc2n1` (centres unmarked) [Example 227, (5-chloro-6-(1,1-difluoro-5-azaspiro[2.4]heptan-5-yl)pyridin-3-yl)(4-(5-methyloxazolo[4,5-b]pyridin-2-yl)piperazin-1-yl)methanone], the IC50 (commonly the midpoint of a concentration-inhibition curve) amounted to 62 nM.

Consider `Cc1ccc2oc(N3CCN(C(=O)c4ccc(-c5noc(C6(C)CC6)n5)cc4)CC3)nc2n1` [Example 51, [4-[5-(1-methylcyclopropyl)-1,2,4-oxadiazol-3-yl]phenyl]-[4-(5-methyloxazolo[4,5-b]pyridin-2-yl)piperazin-1-yl]methanone], for which the half-maximal inhibitory concentration (IC50) came out at 67 nM. Consider `O=C(c1ccc(N2CC3(CCC3(F)F)C2)cc1)N1CCN(c2nc3nc(Cl)ccc3o2)CC1` [Example 203, [4-(5-chloro-[1,3]oxazolo[4,5-b]pyridin-2-yl)piperazin-1-yl]-[4-(7,7-difluoro-2-azaspiro[3.3]heptan-2-yl)phenyl]methanone], for which the IC50 amounted to 35 nM.

In the case of `CC(C)(C)c1nc(-c2ccc(C(=O)N3CCN(c4nc5nc(Cl)ccc5o4)CC3)cn2)no1` [Example 61, [6-(5-tert-butyl-1,2,4-oxadiazol-3-yl)-3-pyridyl]-[4-(5-chlorooxazolo[4,5-b]pyridin-2-yl)piperazin-1-yl]methanone], the IC50 stood at 272 nM. Turning to `Cc1ccc2oc(N3CCN(C(=O)c4ccc5nc(CCC(F)(F)F)oc5c4)CC3)nc2n1` [Example 18, [4-(5-methyloxazolo[4,5-b]pyridin-2-yl)piperazin-1-yl]-[2-(3,3,3-trifluoropropyl)-1,3-benzoxazol-6-yl]methanone], the IC50 worked out at 434 nM. As for `Cc1ccc2oc(N3CCN(C(=O)c4ccc5nc(-c6ccccc6)oc5c4)CC3)nc2n1` [Example 1, (4-(5-Methyloxazolo[4,5-b]pyridin-2-yl)piperazin-1-yl)(2-phenylbenzo[d]oxazol-6-yl)methanone], the IC50 was determined as 115 nM. As for `CC(C)(C)Cn1cnc(-c2ccc(C(=O)N3CCN(c4nc5nc(Cl)ccc5o4)CC3)cc2)n1` [Example 27, [4-(5-chlorooxazolo[4,5-b]pyridin-2-yl)piperazin-1-yl]-[4-[1-(2,2-dimethylpropyl)-1,2,4-triazol-3-yl]phenyl]methanone], the figure is 3 nM; as for `CC(C)(C)Cn1ncc(-c2ccc(C(=O)N3CCN(c4nc5nc(Cl)ccc5o4)CC3)cc2)n1` [Example 44, [4-(5-chlorooxazolo[4,5-b]pyridin-2-yl)piperazin-1-yl]-[4-[2-(2,2-dimethylpropyl)triazol-4-yl]phenyl]methanone], 3 nM. With `CC(C)(C)n1cnc(-c2ccc(C(=O)N3CCN(c4nc5nc(Cl)ccc5o4)CC3)cc2)n1` [Example 41, [4-(1-tert-butyl-1,2,4-triazol-3-yl)phenyl]-[4-(5-chlorooxazolo[4,5-b]pyridin-2-yl)piperazin-1-yl]methanone], the IC50 is 29 nM. As to `Cc1ccc2oc(N3CCN(C(=O)c4ccc(N5CC6(CCCC6)C5)c(-c5ncc[nH]5)c4)CC3)nc2n1` [Example 180, [4-(2-azaspiro[3.4]octan-2-yl)-3-(1H-imidazol-2-yl)phenyl]-[4-(5-methyl-[1,3]oxazolo[4,5-b]pyridin-2-yl)piperazin-1-yl]methanone], the IC50 came to 810 nM. As for `Cc1ccc2oc(N3CCN(C(=O)c4ccc(N5CC(OC(C)C(F)(F)F)C5)cc4)CC3)nc2n1` (centres unmarked) [Example 195, (4-(5-methyloxazolo[4,5-b]pyridin-2-yl)piperazin-1-yl)(4-(3-((1,1,1-trifluoropropan-2-yl)oxy)azetidin-1-yl)phenyl)methanone], the IC50 was found to be 39 nM. For the compound `Cc1ccc2oc(N3CCN(C(=O)c4cc(Cl)cc(N5CC6(CC(O)C6)C5)c4)CC3)nc2n1` [Example 179, [3-chloro-5-(6-hydroxy-2-azaspiro[3.3]heptan-2-yl)phenyl]-[4-(5-methyl-[1,3]oxazolo[4,5-b]pyridin-2-yl)piperazin-1-yl]methanone], the IC50 amounted to 3940 nM.

Consider `CC(C)(C)Cn1cnc(-c2ccc(C(=O)N3CCN(c4nc5nc(Cl)ccc5o4)CC3)cc2)c1` [Example 29, [4-(5-chlorooxazolo[4,5-b]pyridin-2-yl)piperazin-1-yl]-[4-[1-(2,2-dimethylpropyl)imidazol-4-yl]phenyl]methanone], for which the IC50 worked out at 3 nM. Take `O=C(c1ccc2nc(-c3ccccc3)oc2c1)N1CCN(c2nc3ncccc3o2)CC1` [Example 2, (4-(oxazolo[4,5-b]pyridin-2-yl)piperazin-1-yl)(2-phenylbenzo[d]oxazol-6-yl)methanone]: the IC50 amounted to 194 nM. For `Cc1ccc2oc(N3CCN(C(=O)c4cnc(OCC5(C(F)(F)F)CC5)c(Cl)c4)CC3)nc2n1` [Example 147, (5-chloro-6-((1-(trifluoromethyl)cyclopropyl)methoxy)pyridin-3-yl)(4-(5-methyloxazolo[4,5-b]pyridin-2-yl)piperazin-1-yl)methanone], the IC50 was found to be 128 nM. As for `CC(C)(C)c1noc(-c2ccc(C(=O)N3CCN(c4nc5nc(Cl)ccc5o4)CC3)cc2)n1` [Example 39, [4-(3-tert-butyl-1,2,4-oxadiazol-5-yl)phenyl]-[4-(5-chlorooxazolo[4,5-b]pyridin-2-yl)piperazin-1-yl]methanone], the figure is 19 nM; as for `CC(C)(C)Cc1nc(-c2ccc(C(=O)N3CCN(c4nc5nc(C(F)(F)F)ccc5o4)CC3)cc2)no1` [Example 261, (4-(5-neopentyl-1,2,4-oxadiazol-3-yl)phenyl)(4-(5-(trifluoromethyl)oxazolo[4,5-b]pyridin-2-yl)piperazin-1-yl)methanone], 40 nM. For `Cc1ccc2oc(N3CCN(C(=O)c4cc(OCC5(C)CC5)cc(-c5ccc(CO)cc5)c4)CC3)nc2n1` [Example 188, [3-[4-(hydroxymethyl)phenyl]-5-[(1-methylcyclopropyl)methoxy]phenyl]-[4-(5-methyl-[1,3]oxazolo[4,5-b]pyridin-2-yl)piperazin-1-yl]methanone], the IC50 came out at 165 nM.

`Cc1ccc2oc(N3CCN(C(=O)c4ccc(OCC5(C(F)(F)F)CC5)c(-c5ccc(CO)cc5)c4)CC3)nc2n1` [Example 183, [3-[4-(hydroxymethyl)phenyl]-4-[[1-(trifluoromethyl)cyclopropyl]methoxy]phenyl]-[4-(5-methyl-[1,3]oxazolo[4,5-b]pyridin-2-yl)piperazin-1-yl]methanone]: the IC50 amounted to 10 nM. On to `Cc1ccc2oc(N3CCN(C(=O)c4ccc(N5CC(Oc6ccccc6)C5)cc4)CC3)nc2n1` [Example 198, (4-(5-methyloxazolo[4,5-b]pyridin-2-yl)piperazin-1-yl)(4-(3-phenoxyazetidin-1-yl)phenyl)methanone], for which the IC50 was determined as 46 nM. As for `Cc1ccc2oc(N3CCN(C(=O)c4ccc(C5(F)CC5)cc4)CC3)nc2n1` [Example 68, (4-(1-fluorocyclopropyl)phenyl)(4-(5-methyloxazolo[4,5-b]pyridin-2-yl)piperazin-1-yl)methanone], the IC50 came to 4180 nM. `CC(F)(F)Cc1nc(-c2ccc(C(=O)N3CCN(c4nc5nc(Cl)ccc5o4)CC3)cc2)no1` [Example 262, [4-(5-chlorooxazolo[4,5-b]pyridin-2-yl)piperazin-1-yl]-[4-[5-(2,2-difluoropropyl)-1,2,4-oxadiazol-3-yl]phenyl]methanone]: the IC50 was 65 nM. As to `CC(C)(C)c1nc(-c2ccc(C(=O)N3CCN(c4nc5ncccc5o4)CC3)cc2)no1` [Example 14, (4-(5-(tert-butyl)-1,2,4-oxadiazol-3-yl)phenyl)(4-(oxazolo[4,5-b]pyridin-2-yl)piperazin-1-yl)methanone], the IC50 was 128 nM. With `Cc1ccc2oc(N3CCN(C(=O)c4ccc(-c5noc(C(C)(C)C)n5)nc4)CC3)nc2n1` [Example 62, [6-(5-tert-butyl-1,2,4-oxadiazol-3-yl)-3-pyridyl]-[4-(5-methyloxazolo[4,5-b]pyridin-2-yl)piperazin-1-yl]methanone], the IC50 worked out at 871 nM.

Regarding `Cc1ccc2oc(N3CCN(C(=O)c4ccc(-c5noc(C(C)(C)CF)n5)cc4)CC3)nc2n1` [Example 11, (4-(5-(1-fluoro-2-methylpropan-2-yl)-1,2,4-oxadiazol-3-yl)phenyl)(4-(5-methyloxazolo[4,5-b]pyridin-2-yl)piperazin-1-yl)methanone], the IC50 was 49 nM. Take `CC(C)(C)c1nc(-c2ccc(C(=O)N3CCN(c4nc5nc(Cl)ccc5o4)CC3)cc2)no1` [Example 12, (4-(5-(tert-butyl)-1,2,4-oxadiazol-3-yl)phenyl)(4-(5-chlorooxazolo[4,5-b]pyridin-2-yl)piperazin-1-yl)methanone]: the IC50 worked out at 8 nM.

The values are drawn from patent US20220135591A1, “HETEROCYCLIC COMPOUNDS AS INHIBITORS OF MONOACYLGLYCEROL LIPASE (MAGL)” (Hoffmann-La Roche Inc., priority 2019, published 2022).
